{"source": "patent US5216011A", "about": "(priority 1989, dated 1993)", "key": {"[1]": {"details": "neutral pH, unbuffered solution, Ref. 6; cited from earlier work"}, "[2]": {"assay": "Predicted stability of mitomycin C at different temperatures (aqueous degradation kinetics)"}, "[3]": {"assay": "Stability of mitomycin C (5 mg/mL) in polyethylene glycols", "assay_type": "physicochemical"}, "[4]": {"excerpt": "The effect of pretreatment of propylene glycol with sodium bicarbonate and carbon (Darco G-60) was investigated."}, "[5]": {"details": "cited from earlier work; for stable for: 20-40 mcg/mL, room temperature; for degradation product: aqueous"}, "[6]": {"assay": "Pseudo first-order rate constants for degradation of mitomycin C in neat propylene glycol", "assay_type": "physicochemical", "description": "^a Data were taken from Table VI. m:month.\n^b Predicted from 40° C. data."}, "[7]": {"assay": "Solution stability of mitomycin C in non-aqueous solvents (Table V)", "assay_type": "physicochemical", "excerpt": "^a All solutions on test in amber vials and nitrogen purged.\n^b The pH of these vehicles was adjusted to 7.0 with citric acid.\n^c Dried over molecular sieve."}, "[8]": {"assay": "Apparent pH of propylene glycol before and after sodium bicarbonate treatment", "assay_type": "physicochemical", "details": "after 1:10 dilution with water", "description": "Into a 50 mL Erlenmeyer flask containing 25 mL of neat propylene glycol was added 25 mg sodium bicarbonate. The mixture was stirred for 10 minutes. After standing for 30 minutes, the mixture was then filtered through a Millex-SR filter (Millipore Corp., P/N#SLSR025NS) to remove undissolved sodium bicarbonate. Apparent pH of propylene glycol before and after the treatment (after 1:10 dilution with water) was measured and were 6.5 and 8.4, respectively."}}, "note": "Where two headings read alike, the source gives them in different places."}
{"compound": "CO[C@@]12[C@H](COC(N)=O)C3=C(C(=O)C(C)=C(N)C3=O)N1C[C@@H]1N[C@@H]12", "note": "[mitomycin C]", "values": [{"measurement": "E act (activation energy for decomposition)", "setting": "[1]", "value": 19.4, "unit": "kcal/mol"}, {"measurement": "t50", "setting": "[2]; 5° C., predicted", "value": 7.6, "unit": "y"}, {"measurement": "t90", "setting": "[2]; 5° C., predicted", "value": 420, "unit": "days"}, {"measurement": "decomposition rate constant", "setting": "[2]; 5° C., predicted from E act", "value": "1.04e-05", "unit": "h⁻¹"}, {"measurement": "predicted t90", "setting": "[2]; 5° C., unbuffered aqueous solution", "value": "about one"}, {"measurement": "t50", "setting": "[2]; 25° C.", "value": 0.7, "unit": "y"}, {"measurement": "t90", "setting": "[2]; 25° C.", "value": 40, "unit": "days"}, {"measurement": "decomposition rate constant", "setting": "[2]; 25° C., 0.05M phosphate buffer, pH 7.43", "value": 0.00011, "unit": "h⁻¹"}, {"measurement": "time until potency falls to 90% of its original value", "setting": "[2]; in water, 25° C.", "value": 40, "unit": "days"}, {"measurement": "Stability", "setting": "[3]; PEG 200, 300 and 400", "value": "poor and variable stability"}, {"measurement": "Effect of purging with nitrogen on stability", "setting": "[3]; PEG 400", "value": "improved stability"}, {"measurement": "Effect of pH adjustment to 6.2 on stability", "setting": "[3]; PEG 400, sodium glycodeoxycholate", "value": "unsuccessful"}, {"measurement": "Effect of propyl gallate on stability", "setting": "[3]; PEG, nitrogen purged solutions", "value": "not to improve stability"}, {"measurement": "Effect of air vs. nitrogen on stability", "setting": "[4]; PG and PG/water, 25° C.", "value": "more stable in the presence of nitrogen"}, {"measurement": "Stability", "setting": "[4]; all PG formulations, 25° C. and 4° C.", "value": "Excellent stability"}, {"measurement": "Stability", "setting": "[4]; glycerin", "value": "poor stability"}, {"measurement": "Effect of 5% and 10% water on stability", "setting": "[4]; propylene glycol", "value": "do not adversely affect, and may actually improve, mitomycin C stability"}, {"measurement": "Effect of pretreatment of propylene glycol with carbon (Darco G-60) on stability", "setting": "[4]; propylene glycol", "value": "did not significantly improve mitomycin C stability"}, {"measurement": "Effect of pretreatment of propylene glycol with sodium bicarbonate on stability", "setting": "[4]; propylene glycol", "value": "significantly improved"}, {"measurement": "Effect of three antioxidants on stability", "setting": "[4]; propylene glycol, vs control solution", "value": "do not significantly improve mitomycin C stability"}, {"measurement": "stable for", "setting": "[5]; 0.9% sodium chloride injection", "value": 12, "unit": "h"}, {"measurement": "stable for", "setting": "[5]; 5% dextrose injection", "value": 3, "unit": "h"}, {"measurement": "pH of maximum stability", "setting": "[5]; aqueous solutions", "value": "7-8"}, {"measurement": "degradation product", "setting": "[5]; pH above 7", "value": "hydrolyzed to 7-hydroxymitosane"}, {"measurement": "degradation product", "setting": "[5]; pH below 7", "value": "converted to 1-hydroxy-2,7-diaminomitosanes"}, {"measurement": "time to loss of 10% potency", "setting": "[5]; in water at 25° C.", "value": "about 40 days"}, {"measurement": "stable for", "setting": "[5]; sodium/lactate injection", "value": 24, "unit": "h"}, {"measurement": "Arrhenius activation energy, Ea", "setting": "[6]; 4-40° C.", "value": 16.5, "unit": "kcal/mol"}, {"measurement": "time for which potency will remain greater than 90% of initial", "setting": "[6]; 4° C.", "value": "more than 30 months"}, {"measurement": "t90", "setting": "[6]; 4 °C", "value": 38, "unit": "months"}, {"measurement": "10^2 ko (pseudo first-order rate constant)", "setting": "[6]; 4 °C (277 K), m: month", "value": 0.276, "unit": "m^-1"}, {"measurement": "t90 predicted from 40° C. data", "setting": "[6]; 4 °C, m: month", "value": 39, "unit": "m"}, {"measurement": "t90", "setting": "[6]; 25 °C", "value": 3.9, "unit": "months"}, {"measurement": "10^2 ko (pseudo first-order rate constant)", "setting": "[6]; 25 °C (298 K), m: month", "value": 2.69, "unit": "m^-1"}, {"measurement": "t90", "setting": "[6]; 40 °C", "value": 37, "unit": "days"}, {"measurement": "10^2 ko (pseudo first-order rate constant)", "setting": "[6]; 40 °C (313 K), m: month", "value": 8.40, "unit": "m^-1"}, {"measurement": "Stability", "setting": "[7]; 2-pyrrolidone (2-Pyr)", "value": "Slightly lower stability"}, {"measurement": "Stability", "setting": "[7]; DMA, NMP and PG", "value": "Excellent stability"}, {"measurement": "Stability", "setting": "[7]; ethanol", "value": "surprisingly poor"}, {"measurement": "Effect of addition of 2% water on stability", "setting": "[7]; propylene glycol, vs neat solvent", "value": "appeared to increase stability"}]}
{"compound": "CC(O)CO", "note": "(stereo not drawn) [propylene glycol]", "values": [{"measurement": "Apparent pH after treatment", "setting": "[8]; after sodium bicarbonate treatment", "value": 8.4}, {"measurement": "Apparent pH before treatment", "setting": "[8]; before sodium bicarbonate treatment", "value": 6.5}]}
